Source: the supplement of paper PMC9938120

What was measured:
Test in all cases: drug sensitivity score (DSS3, normalised partial AUC of % inhibition dose-response) (DSS (score)); higher = more sensitive (stronger inhibition of viability); extreme values may be limits of the assay
Conditions in all cases: 72 h; library: FO5A; assay format: 2D, 384-well, CellTiter-Glo
FMOC02_1 = tested on: FMOC02_1 (patient-derived low-grade serous ovarian cancer cells)
Summary of the method: (§1)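 Patient-derived ovarian cancer cells (early passage, under 10) were dispensed onto 384-well flat clear-bottom plates pre-plated with compounds at five concentrations covering a 10,000-fold range. Plates were incubated 72 h at 37 °C, 5% CO2, and viability was read with CellTiter-Glo. Data were processed in Breeze. The drug sensitivity score (DSS3) is a partial area under the percent-inhibition dose-response curve, divided by the log of the upper asymptote; higher means more sensitive.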

FMOC02_2 = tested on: FMOC02_2 (patient-derived low-grade serous ovarian cancer cells)
Summary of the method: as §1

FMOC02_3 = tested on: FMOC02_3 (patient-derived low-grade serous ovarian cancer cells)
Summary of the method: as §1

FMOC03 = tested on: FMOC03 (patient-derived mucinous ovarian cancer cells)
Summary of the method: as §1

FMOC04 = tested on: FMOC04 (patient-derived high-grade serous ovarian cancer cells)
Summary of the method: as §1

FMOC06 = tested on: FMOC06 (patient-derived mucinous ovarian cancer cells)
Summary of the method: as §1

FMOC09 = tested on: FMOC09 (patient-derived high-grade serous ovarian cancer cells)
Summary of the method: as §1

FMOC11 = tested on: FMOC11 (patient-derived high-grade serous ovarian cancer cells)
Summary of the method: as §1

FMOC14 = tested on: FMOC14 (patient-derived high-grade serous ovarian cancer cells)
Summary of the method: as §1

FMOC17 = tested on: FMOC17 (patient-derived low-grade serous ovarian cancer cells)
Summary of the method: as §1

FMOC22 = tested on: FMOC22 (patient-derived mucinous ovarian cancer cells)
Summary of the method: as §1

FMOC24 = tested on: FMOC24 (patient-derived high-grade serous ovarian cancer cells)
Summary of the method: as §1

FMOC25_2 = tested on: FMOC25_2 (patient-derived low-grade serous ovarian cancer cells)
Summary of the method: as §1

FMOC27 = tested on: FMOC27 (patient-derived low-grade serous ovarian cancer cells)
Summary of the method: as §1

FMOC28 = tested on: FMOC28 (patient-derived low-grade serous ovarian cancer cells)
Summary of the method: as §1

Compound | drug sensitivity score (FMOC02_1) | drug sensitivity score (FMOC02_2) | drug sensitivity score (FMOC02_3) | drug sensitivity score (FMOC03) | drug sensitivity score (FMOC04) | drug sensitivity score (FMOC06) | drug sensitivity score (FMOC09) | drug sensitivity score (FMOC11) | drug sensitivity score (FMOC14) | drug sensitivity score (FMOC17) | drug sensitivity score (FMOC22) | drug sensitivity score (FMOC24) | drug sensitivity score (FMOC25_2) | drug sensitivity score (FMOC27) | drug sensitivity score (FMOC28)
CCN1CCN(c2ccc(Nc3cc(N(C)C(=O)Nc4c(Cl)c(OC)cc(OC)c4Cl)ncn3)cc2)CC1 [Infigratinib] | 0 | 0 | 0 | 0 | 0 | 0 | 0 | 0 | 0 | 0 | 0 | 0.05 | 0 | 0 | 0.5
C[C@H]1CNCCCN1S(=O)(=O)c1cccc2cncc(F)c12 [Ripasudil] | 0 | 0 | 0 | 0 | 0 | 0 | 0 | 0 | 0 | 0 | 0 | 0 | 0 | 0 | 0
COCCNCc1ccc(-c2cc3nccc(Oc4ccc(NC(=S)NC(=O)Cc5ccc(F)cc5)cc4F)c3s2)nc1 [Glesatinib] | 0 | 0 | 0 | 0 | 0 | 0 | 0 | 0 | 0.2 | 0 | 0 | 0.6 | 0 | 0 | 2.9
CNC(=O)c1ccc(N2C(=S)N(c3cnc(C#N)c(C(F)(F)F)c3)C(=O)C23CCC3)cc1F [Apalutamide] | 0 | 0 | 0 | 0 | 0 | 0 | 0 | 0 | 0 | 0 | 0 | 0.45 | 0 | 0 | 3.4
O=C(Nc1cc(Oc2cc(F)c(NC(=O)C3(C(=O)Nc4ccc(F)cc4)CC3)cc2F)ccn1)C1CC1 [Altiratinib] | 4.9 | 5.2 | 5.1 | 5 | 1.05 | 6.9 | 1.7 | 2.4 | 5.1 | 3 | 4.3 | 8.2 | 9.1 | 5.1 | 3.3
COc1cc(C)c(/C=C/C(C)=C/C=C/C(C)=C/C(=O)O)c(C)c1C [Acitretin] | 0.2 | 0.7 | 3.4 | 0 | 0 | 0.1 | 0 | 2.8 | 0 | 0 | 0 | 0 | 0 | 0 | 0.3
COc1cc2c(cc1OCCCN1CCCC1)N=C(N)C21CCC1 [A-366] | 3.9 | 0.2 | 0 | 0.7 | 3.9 | 0 | 2.3 | 1.1 | 0.5 | 2.3 | 0 | 7.2 | 4.9 | 0 | 0.1
CC[C@@](C)(Nc1ccnc(-c2c[nH]c3ncccc23)n1)C(=O)NCC(F)(F)F [Decernotinib] | 3.3 | 1.7 | 0.4 | 0 | 0 | 2.6 | 0 | 0 | 0 | 0 | 0 | 0 | 0 | 0 | 0
Cn1cc(-c2ccc(F)c(C(F)(F)F)c2)nc1C1CCN(c2ncnc3[nH]ncc23)CC1 | 3.1 | 3.9 | 5.4 | 0 | 0 | 0 | 0 | 0 | 0 | 0.6 | 0 | 0 | 5.6 | 0.1 | 3.8
CONC(=O)c1ccccc1Nc1cc(Nc2cc(C)nn2C(C)C)ncc1Cl | 0 | 1.6 | 1 | 0 | 0 | 0 | 1.4 | 0 | 0 | 0.3 | 0 | 0.2 | 1.7 | 0 | 0
Cc1cc(F)c(C(=O)Nc2cccc(-c3nncn3C(C)C)n2)cc1-n1cnc(C2CC2)c1 [Selonsertib] | 0 | 0 | 0 | 0 | 0 | 0 | 0 | 0 | 0 | 1.5 | 0 | 0.6 | 0 | 0 | 0
CNS(=O)(=O)Nc1nccc(Cc2c(C)c3ccc(Oc4ncccn4)cc3oc2=O)c1F | 0 | 0.8 | 3.7 | 0.4 | 0 | 0.4 | 0.7 | 0 | 0 | 0 | 0.7 | 0 | 5.2 | 0 | 4.5
COCCOc1cnc2ccn([C@H](C)c3nnc4c(F)cc(-c5cnn(C)c5)cn34)c(=O)c2c1 [AMG-337] | 0 | 0 | 0 | 0 | 0 | 0 | 0 | 0 | 0 | 0 | 0 | 0 | 0 | 0 | 3.4
